Laboratory results from patent publication US9540385B2, “Pyrrolopyrimidine compounds as kinase inhibitors” (Pharmacyclics LLC, priority 2012, dated 2017).

Target: T1, BTK (Homo sapiens, UniProt Q06187)
T1 construct: purified from insect cells as a full-length construct containing a N-terminal 6×-His tag; His6 (N); made in house; host or cells: insect cells (baculovirus, Sf21)
Test: Btk in vitro inhibitory activity / inhibition of a panel of kinases (TR-FRET, mobility shift or radiometric filter binding)
Assay type: biochemical
Conditions: kinase assay by one of methods A, B or C
Procedure: Btk kinase activity is determined using a time-resolved fluorescence resonance energy transfer (TR-FRET) methodology. Measurements are performed in a reaction volume of 50 μL using 96-well assay plates. Kinase enzyme, inhibitor, ATP (at the Km for the kinase), and 1 μM peptide substrate (Biotin-AVLESEEELYSSARQ-NH2) are incubated in a reaction buffer composed of 20 mM Tris, 50 mM NaCl, MgCl2 (5-25 mM depending on the kinase), MnCl2 (0-10 mM), 1 mM DTT, 0.1 mM EDTA, 0.01% bovine serum albumin, 0.005% Tween-20, and 10% DMSO at pH 7.4 for one hour. The reaction is quenched by the addition of 1.2 equivalents of EDTA (relative to divalent cation) in 25 μL of 1× Lance buffer (Perkin-Elmer). Streptavidin-APC (Perkin-Elmer) and Eu-labeled p-Tyr100 antibody (Perkin-Elmer) in 1× Lance buffer are added in a 25 μL volume to give final concentrations of 100 nM and 2.5 nM, respectively, and the mixture is allowed to incubate for one hour. The TR-FRET signal is measured on a multimode plate reader with an excitation wavelength (λEx) of 330 nm and detection wavelengths (λEm) of 615 and 665 nm. Activity is determined by the ratio of the fluorescence at 665 nm to that at 615 nm. For each compound, enzyme activity is measured at various concentrations of compound. Negative control reactions are performed in the absence of inhibitor in replicates of six, and two no-enzyme controls are used to determine baseline fluorescence levels. Inhibition constants, Ki(app), ware obtained using the program BatchKi (Kuzmic et al. (2000), Anal. Biochem. 286:45-50). IC50s are obtained according to the equation: IC50={Ki(app)/(1+[ATP]/Km^ATP)}+[E]total/2;
For all kinases, [ATP]=Km^ATP, [Btk]total=0.5 nM and [Lck]total=6 nM.
Kinase activity is measured in vitro using electrophoretic mobility shift assay. The kinase reactions are assembled in a total volume of 25 μL in 384 well plates. The reactions comprise: BTK enzyme (1 nM, N-terminal His6-tagged, recombinant, full-length, human BTK purified from baculovirus Sf21 insect cell system), inhibitor, ATP ([…] the apparent Km for the kinase), fluorescently labeled peptide substrate (1 μM, FAM-GEEPLYWSFPAKKK-NH2) in a reaction buffer composed of 100 mM HEPES, pH7.5, 5 mM MgCl2 1 mM DTT, 0.1% bovine serum albumin, 0.01% Triton X-100, and 1% DMSO. The reaction is incubated for one hour and is quenched by the addition of 45 μL of termination buffer (100 mM HEPES, pH7.5, 0.01% Triton X-100, 30 mM EDTA). The terminated reactions are analyzed using 12 channel LabChip® 3000 microfluidic detection instrument (Caliper Life Sciences). The enzymatic phosphorylation of the peptide results in a change in net charge, enabling electrophoretic separation of product from substrate peptide. As substrate and product peptides are separated, two peaks of fluorescence are observed. Change in the relative fluorescence intensity of the substrate and product peaks is the parameter measured, reflecting enzyme activity. In the presence of an inhibitor, the ratio between product and substrate is altered: the signal of the product decreases, while the signal of the substrate increases.
Activity in each sample is determined as the product to sum ratio (PSR):P/(S+P), where P is the peak height of the product peptide and S is the peak height of the substrate peptide. For each compound, enzyme activity is measured at various concentrations (12 concentrations of compound spaced by 3× dilution intervals). Negative control samples (0%-inhibition in the absence of inhibitor) and positive control samples (100%-inhibition, in the presence of 20 mM EDTA) are assembled in replicates of four and are used to calculate %-inhibition values for each inhibitor at each concentration. Percent inhibition (Pinh) is determined using following equation: […]

T1 sequence (Q06187 whole entry): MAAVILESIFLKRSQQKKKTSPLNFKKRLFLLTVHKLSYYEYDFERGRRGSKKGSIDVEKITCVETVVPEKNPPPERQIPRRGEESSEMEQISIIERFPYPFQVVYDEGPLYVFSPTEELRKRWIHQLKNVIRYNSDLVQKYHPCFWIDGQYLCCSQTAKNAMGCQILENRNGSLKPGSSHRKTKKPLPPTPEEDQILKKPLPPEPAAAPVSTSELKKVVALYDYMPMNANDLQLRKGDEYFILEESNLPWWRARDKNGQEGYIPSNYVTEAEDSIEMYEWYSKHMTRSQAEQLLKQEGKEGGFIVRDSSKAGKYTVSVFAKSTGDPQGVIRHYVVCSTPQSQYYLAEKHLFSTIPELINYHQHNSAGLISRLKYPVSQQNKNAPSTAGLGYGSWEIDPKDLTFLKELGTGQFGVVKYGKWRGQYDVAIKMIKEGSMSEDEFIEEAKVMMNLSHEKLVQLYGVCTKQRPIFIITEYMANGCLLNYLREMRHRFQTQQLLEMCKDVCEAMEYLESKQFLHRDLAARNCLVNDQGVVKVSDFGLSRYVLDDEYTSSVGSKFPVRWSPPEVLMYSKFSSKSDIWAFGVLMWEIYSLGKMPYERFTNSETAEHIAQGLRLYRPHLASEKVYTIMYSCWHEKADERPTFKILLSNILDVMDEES

Row | SMILES | IC50 [nM]
1 | COc1c(-c2ccc(Oc3ccccc3)cc2)c2c(N)ncnc2n1[C@@H]1CCN(C(=O)/C=C/CN(C)C)C1 [Compound 88, (R,E)-1-(3-(4-amino-6-methoxy-5-(4-phenoxyphenyl)-7H-pyrrolo[2,3-d]pyrimidin-7-yl)pyrrolidin-1-yl)-4-(dimethylamino)but-2-en-1-one] | < 100
2 | COCCN(C)C/C=C/C(=O)N1CC[C@@H](n2c(C)c(-c3ccc(Oc4ccccc4)cc3)c3c(N)ncnc32)C1 [Compound 61, (R,E)-1-(3-(4-amino-6-methyl-5-(4-phenoxyphenyl)-7H-pyrrolo[2,3-d]pyrimidin-7-yl)pyrrolidin-1-yl)-4-((2-methoxyethyl)(methyl)amino)but-2-en-1-one] | < 100
3 | CN(C/C=C/C(=O)N1CC[C@@H](n2c(-c3ncco3)c(-c3ccc(Oc4ccccc4)cc3)c3c(N)ncnc32)C1)C1CC1 [Compound 124, (R,E)-1-(3-(4-amino-6-(oxazol-2-yl)-5-(4-phenoxyphenyl)-7H-pyrrolo[2,3-d]pyrimidin-7-yl)pyrrolidin-1-yl)-4-(cyclopropyl(methyl)amino)but-2-en-1-one] | < 100
4 | Cc1c(-c2ccc(Cl)cc2)c2c(N)ncnc2n1-c1cccc(N(C)C(=O)/C=C/CN(C)C2CC2)c1 [Compound 48, (E)-N-(3-(4-amino-5-(4-chlorophenyl)-6-methyl-7H-pyrrolo[2,3-d]pyrimidin-7-yl)phenyl)-4-(cyclopropyl(methyl)amino)-N-methylbut-2-enamide] | < 100
5 | CN(C/C=C/C(=O)N1CC[C@@H](n2c(C3CC3)c(-c3ccc(Oc4ccccc4)cc3)c3c(N)ncnc32)C1)[C@@H]1CCOC1 [Compound 97, (E)-1-((R)-3-(4-amino-6-cyclopropyl-5-(4-phenoxyphenyl)-7H-pyrrolo[2,3-d]pyrimidin-7-yl)pyrrolidin-1-yl)-4-(methyl((R)-tetrahydrofuran-3-yl)amino)but-2-en-1-one] | < 100
6 | COCCN(C/C=C/C(=O)N1CC[C@@H](n2c(C#N)c(-c3ccc(Oc4ccccc4)cc3)c3c(N)ncnc32)C1)CCOC [Compound 105, (R,E)-4-amino-7-(1-(4-(bis(2-methoxyethyl)amino)but-2-enoyl)pyrrolidin-3-yl)-5-(4-phenoxyphenyl)-7H-pyrrolo[2,3-d]pyrimidine-6-carbonitrile] | < 100
7 | COc1c(-c2ccc(Oc3cccc(F)c3)cc2)c2c(N)ncnc2n1[C@@H]1CCN(C(=O)/C=C/CN(C)C2CC2)C1 [Compound 92, (R,E)-1-(3-(4-amino-5-(4-(3-fluorophenoxyl)phenyl)-6-methoxy-7H-pyrrolo[2,3-d]pyrimidin-7-yl)pyrrolidin-1-yl)-4-(cyclopropyl(methyl)amino)but-2-en-1-one] | < 100
8 | COCCN(C)C/C=C/C(=O)N1CC[C@@H](n2c(C#N)c(-c3ccc(Oc4ccccc4)cc3)c3c(N)ncnc32)C1 [Compound 104, (R,E)-4-amino-7-(1-(4-((2-methoxyethyl)(methyl)amino)but-2-enoyl)pyrrolidin-3-yl)-5-(4-phenoxyphenyl)-7H-pyrrolo[2,3-d]pyrimidine-6-carbonitrile] | < 100
9 | CN(C/C=C/C(=O)N1CC[C@@H](n2c(C#N)c(-c3ccc(Oc4ccccc4)cc3)c3c(N)ncnc32)C1)[C@@H]1CCOC1 [Compound 107, 4-amino-7-((R)-1-((E)-4-(methyl((R)-tetrahydrofuran-3-yl)amino)but-2-enoyl)pyrrolidin-3-yl)-5-(4-phenoxyphenyl)-7H-pyrrolo[2,3-d]pyrimidine-6-carbonitrile] | < 100
10 | CN(C)C/C=C/C(=O)N1CC[C@@H](n2c(C#N)c(-c3ccc(Oc4ccccc4)cc3)c3c(N)ncnc32)C1 [Compound 102, (R,E)-4-amino-7-(1-(4-(dimethylamino)but-2-enoyl)pyrrolidin-3-yl)-5-(4-phenoxyphenyl)-7H-pyrrolo[2,3-d]pyrimidine-6-carbonitrile] | < 100

Now from value to compound:

Row | IC50 [nM] | SMILES
11 | 100 to 1000 | CCc1c(-c2ccc(Oc3ccccc3)cc2)c2c(N)ncnc2n1[C@@H]1CCN(C(=O)/C=C/CN(C)C2CC2)C1 [Compound 115, (R,E)-1-(3-(4-amino-6-ethyl-5-(4-phenoxyphenyl)-7H-pyrrolo[2,3-d]pyrimidin-7-yl)pyrrolidin-1-yl)-4-(cyclopropyl(methyl)amino)but-2-en-1-one]
12 | < 100 | CN(C)C/C=C/C(=O)N1CC[C@@H](n2c(C3CC3)c(-c3ccc(Oc4ccccc4)cc3)c3c(N)ncnc32)C1 [Compound 100, (R,E)-1-(3-(4-amino-6-cyclopropyl-5-(4-phenoxyphenyl)-7H-pyrrolo[2,3-d]pyrimidin-7-yl)pyrrolidin-1-yl)-4-(dimethylamino)but-2-en-1-one]
13 | < 100 | CN(C/C=C/C(=O)N1CC[C@@H](n2c(C3CC3)c(-c3ccc(Oc4ccccc4)cc3)c3c(N)ncnc32)C1)C1CC1 [Compound 94, (R,E)-1-(3-(4-amino-6-cyclopropyl-5-(4-phenoxyphenyl)-7H-pyrrolo[2,3-d]pyrimidin-7-yl)pyrrolidin-1-yl)-4-(cyclopropyl(methyl)amino)but-2-en-1-one]
14 | < 100 | CN(C/C=C/C(=O)N1CC[C@@H](n2c(N)c(-c3ccc(Oc4ccccc4)cc3)c3c(N)ncnc32)C1)C1CC1 [Compound 162, (R,E)-4-(cyclopropyl(methyl)amino)-1-(3-(4,6-diamino-5-(4-phenoxyphenyl)-7H-pyrrolo[2,3-d]pyrimidin-7-yl)pyrrolidin-1-yl)but-2-en-1-one]
15 | < 100 | CN(C/C=C/C(=O)N1CC[C@@H](n2c(C(=O)O)c(-c3ccc(Oc4ccccc4)cc3)c3c(N)ncnc32)C1)C1CC1 [Compound 128, (R,E)-4-amino-7-(1-(4-(cyclopropyl(methyl)amino)but-2-enoyl)pyrrolidin-3-yl)-5-(4-phenoxyphenyl)-7H-pyrrolo[2,3-d]pyrimidine-6-carboxylic acid]
16 | < 100 | Cc1c(-c2ccc(Oc3ccccc3)cc2)c2c(N)ncnc2n1C1CCN(C(=O)/C=C/CN(C)C2CC2)CC1 [Compound 67, (E)-1-(4-(4-amino-6-methyl-5-(4-phenoxyphenyl)-7H-pyrrolo[2,3-d]pyrimidin-7-yl)piperidin-1-yl)-4-(cyclopropyl(methyl)amino)but-2-en-1-one]
17 | < 100 | Cc1c(-c2ccc(Oc3ccccc3)cc2)c2c(N)ncnc2n1[C@@H]1CCN(C(=O)/C=C/CN(C)[C@@H]2CCOC2)C1 [Compound 130, (E)-1-((R)-3-(4-amino-6-methyl-5-(4-phenoxyphenyl)-7H-pyrrolo[2,3-d]pyrimidin-7-yl)pyrrolidin-1-yl)-4-(methyl((R)-tetrahydrofuran-3-yl)amino)but-2-en-1-one]
18 | < 100 | Cc1c(-c2ccc(Oc3ccccc3)cc2)c2c(N)ncnc2n1[C@@H]1CCCN(C(=O)/C=C/CN(C)C2CC2)C1 [Compound 72, (R,E)-1-(3-(4-amino-6-methyl-5-(4-phenoxyphenyl)-7H-pyrrolo[2,3-d]pyrimidin-7-yl)piperidin-1-yl)-4-(cyclopropyl(methyl)amino)but-2-en-1-one]
19 | < 100 | COc1c(-c2ccc(Oc3ccccc3)cc2)c2c(N)ncnc2n1[C@@H]1CCN(C(=O)/C=C/CN(C)C2CC2)C1 [Compound 89, (R,E)-1-(3-(4-amino-6-methoxy-5-(4-phenoxyphenyl)-7H-pyrrolo[2,3-d]pyrimidin-7-yl)pyrrolidin-1-yl)-4-(cyclopropyl(methyl)amino)but-2-en-1-one]
